Results: patent publication US9497963B2, “Methods and compositions for control of gypsy moth, Lymantria dispar” (Simon Fraser University, priority 2008, dated 2016)
Where two headings read alike, the source gives them in different places.

Tests used:
male gypsy moth antenna = experiment: Coupled gas chromatographic-electroantennographic detection (GC-EAD); design: species or system Lymantria dispar; conditions: EAD peak size and shape (sharp/broad)
How it was run: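 GC column effluent split between flame ionization detector and an excised male moth antenna held between saline-filled glass capillary electrodes, tip removed, in a warm air stream. Antennal potentials assigned to compounds by matching retention times with FID peaks.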

[1] = tested on: male gypsy moth antenna response to pheromone (+)-1; experiment: EAG short-term (STI) and long-term (LTI) inhibition of pheromone signaling (Example 5); design: species or system Lymantria dispar; conditions: for inhibition at 0.001 mg / inhibition at 0.01 mg / inhibition at 0.1 mg / inhibition at 100 µg, 0.1 mg: Lymantria dispar, mean ± S.E.; for inhibition at 0.001 mg: mixed plume (+)-1 100 ng + compound 1 μg; for inhibition at 0.001 mg / inhibition at 0.01 mg / inhibition at 0.1 mg: negative = enhancement, read-out: Activity (%): short-term inhibition (STI); for inhibition at 0.01 mg: mixed plume (+)-1 100 ng + compound 10 μg; for inhibition at 0.1 mg: mixed plume (+)-1 100 ng + compound 100 μg (puff v); for inhibition at 100 µg, 0.1 mg: pure (+)-1 100 ng plume following mixed plume with 100 μg compound, read-out: Activity (%): long-term inhibition (LTI)
How it was run: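 Excised male gypsy moth antenna in saline pH 6.8 under purified air (300 mL/min); 0.3 s puffs: air, (+)-1 100 ng, (+)-1 plus compound 1, 10, 100 μg per cartridge, then (+)-1 alone. STI: mixed-puff air-corrected depolarization loss versus first pheromone puff; LTI: final pheromone-puff loss.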

Row | Compound | GC-EAD activity (male gypsy moth antenna) | inhibition at 0.001 mg [1] [%] | inhibition at 0.01 mg [1] [%] | inhibition at 0.1 mg [1] [%] | inhibition at 100 µg, 0.1 mg [1] [%] | long-term inhibition (LTI) activity (in words) [1] | long-term inhibition (LTI) activity (in words) ([1]; listed as 3c{2, 3})
1 | COc1ccc(OC)cc1 [3c{1,1}, 1,4-Dimethoxy benzene] | + sharp | 24 ± 8 | 23 ± 9 | 15 ± 25 | -7 ± 10 |  | 
2 | CCCOc1ccc(OC)cc1 [3c{1,3}, 1-methoxy-4-propoxy-benzene] | + sharp | 28 ± 16 | -2 ± 5 | 48 ± 14 | 39 ± 12 |  | 
3 | CCOc1ccc(OCC)cc1 [3c{2,2}, 1,4-Diethoxy benzene] | Trace | 7 ± 12 | -19 ± 8 | -27 ± 15 | 17 ± 11 |  | 
4 | CCCOc1ccc(OCC)cc1 [3c{2,3}, 1-ethoxy-4-propoxy benzene] | None | 8 ± 20 | -30 ± 10 | -62 ± 50 | 58 ± 7 | strongest long-term inhibitor | most active
5 | CCCOc1ccc(OCCC)cc1 [3c{3,3}, 1,4-Dipropoxy benzene] | None | -3 ± 13 | -60 ± 38 | -100 ± 40 | 29 ± 13 |  | 
6 | CC(C)CCOc1ccc(OCCC(C)C)cc1 [3c{5,5}, 1,4-Di-(3-methyl-butyloxy) benzene] | None | 41 ± 14 | 4 ± 26 | 50 ± 9 | 7 ± 4 |  | 
